Experimental data reported in US8354441B2, “Oxazoline derivatives” (Hoffmann-La Roche Inc., priority 2009, dated 2013).

Legend:
mouse TAAR1 = target: T1, mouse TAAR1 (Mus musculus, UniProt Q923Y8); test: TAAR1 radioligand binding with [3H]-rac-2-(1,2,3,4-tetrahydro-1-naphthyl)-2-imidazoline, membranes of stably transfected HEK293 cells; conditions: first value of the cell, read-out: Ki (μM) mouse/rat: mouse
T1 construct: expressed in transfected cells; host or cells: HEK293 (ATCC # CRL-1573), stably transfected with pIRESneo2 expression plasmid
T1 sequence (Q923Y8 whole entry): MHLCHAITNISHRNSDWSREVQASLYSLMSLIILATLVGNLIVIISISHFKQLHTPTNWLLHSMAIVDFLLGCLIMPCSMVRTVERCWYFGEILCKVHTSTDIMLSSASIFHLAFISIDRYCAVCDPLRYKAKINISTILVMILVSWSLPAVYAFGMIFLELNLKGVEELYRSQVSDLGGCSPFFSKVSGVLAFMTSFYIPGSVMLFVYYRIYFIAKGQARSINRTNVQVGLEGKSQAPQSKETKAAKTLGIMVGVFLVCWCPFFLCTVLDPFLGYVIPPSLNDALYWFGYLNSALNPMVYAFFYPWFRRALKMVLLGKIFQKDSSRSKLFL
Summary of the method: (§1)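 Competition binding: competitors spanning 10 pM–30 μM displace 60 nM [3H]-rac-2-(1,2,3,4-tetrahydro-1-naphthyl)-2-imidazoline from stably transfected HEK293 membranes (mouse or rat receptor), 30 min, 4 °C, pH 7.0 buffer with Mg2+/Ca2+. Bound label counted after GF/C filtration; 10 μM unlabelled ligand defines non-specific binding.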

rat TAAR1 = target: T2, rat TAAR1 (Rattus norvegicus, UniProt Q923Y9); test: as above; conditions: second value of the cell, read-out: Ki (μM) mouse/rat: rat
T2 construct: expressed in transfected cells; host or cells: HEK293 (ATCC # CRL-1573), stably transfected with pIRESneo2 expression plasmid
T2 sequence (Q923Y9 whole entry): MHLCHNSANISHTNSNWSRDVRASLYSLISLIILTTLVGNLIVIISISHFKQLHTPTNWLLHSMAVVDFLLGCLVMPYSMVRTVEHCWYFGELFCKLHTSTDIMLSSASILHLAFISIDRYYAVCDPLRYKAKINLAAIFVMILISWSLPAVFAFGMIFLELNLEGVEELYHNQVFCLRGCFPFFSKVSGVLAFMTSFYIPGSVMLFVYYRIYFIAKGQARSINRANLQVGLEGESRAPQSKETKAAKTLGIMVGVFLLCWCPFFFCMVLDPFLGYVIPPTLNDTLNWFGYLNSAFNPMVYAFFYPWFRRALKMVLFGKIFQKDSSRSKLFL
Summary of the method: as §1

Ki (mouse TAAR1) | Ki (rat TAAR1) | Compound
0.0015 µM | 0.0044 µM | N#Cc1ccc(C(=O)Nc2ccc(CC[C@H]3COC(N)=N3)cc2)nc1 [Example 119, (S)-N-(4-(2-(2-Amino-4,5-dihydrooxazol-4-yl)ethyl)phenyl)-5-cyanopicolinamide]
0.0032 µM | 0.0046 µM | NC1=N[C@@H](CCc2ccc(NC(=O)c3ccc(F)nc3)cc2)CO1 [Example 121, (S)-N-(4-(2-(2-Amino-4,5-dihydrooxazol-4-yl)ethyl)phenyl)-6-fluoronicotinamide]
0.0043 µM | 0.0043 µM | NC1=N[C@@H](CCc2ccc(NC(=O)c3ccc(Cl)nn3)cc2)CO1 [Example 122, (S)-N-(4-(2-(2-Amino-4,5-dihydrooxazol-4-yl)ethyl)phenyl)-6-chloropyridazine-3-carboxamide]
0.004 µM | 0.0061 µM | NC1=N[C@@H](CCc2ccc(NC(=O)c3cncc(Cl)c3)cc2)CO1 [Example 124, (S)-N-(4-(2-(2-Amino-4,5-dihydrooxazol-4-yl)ethyl)phenyl)-5-chloronicotinamide]
0.0007 µM | 0.002 µM | NC1=N[C@@H](CCc2ccc(NC(=O)c3cnc(Cl)cn3)cc2)CO1 [Example 126, (S)-N-(4-(2-(2-Amino-4,5-dihydrooxazol-4-yl)ethyl)phenyl)-5-chloropyrazine-2-carboxamide]
0.0039 µM | 0.0033 µM | Cc1cnc(C(=O)Nc2ccc(CC[C@H]3COC(N)=N3)cc2)cn1 [Example 129, (S)-N-(4-(2-(2-Amino-4,5-dihydrooxazol-4-yl)ethyl)phenyl)-5-methylpyrazine-2-carboxamide]
0.004 µM | 0.0008 µM | NC1=N[C@@H](CCc2ccc(C(=O)Nc3ccc(Cl)cn3)cc2)CO1 [Example 131, (S)-4-(2-(2-Amino-4,5-dihydrooxazol-4-yl)ethyl)-N-(5-chloropyridin-2-yl)benzamide]
0.0003 µM | 0.0006 µM | NC1=N[C@@H](CCc2ccc(NC(=O)c3ccc(Cl)cc3F)cc2)CO1 [Example 136, (S)-N-(4-(2-(2-Amino-4,5-dihydrooxazol-4-yl)ethyl)phenyl)-4-chloro-2-fluorobenzamide]
0.0003 µM | 0.0006 µM | NC1=N[C@@H](CCc2ccc(NC(=O)c3ccc(Cl)cc3Cl)cc2)CO1 [Example 137, (S)-N-(4-(2-(2-Amino-4,5-dihydrooxazol-4-yl)ethyl)phenyl)-2,4-dichlorobenzamide]
0.0044 µM | 0.0011 µM | N#Cc1ccc(NC(=O)c2ccc(CC[C@H]3COC(N)=N3)cc2)cc1 [Example 142, (S)-4-(2-(2-Amino-4,5-dihydrooxazol-4-yl)ethyl)-N-(4-cyanophenyl)benzamide]
0.0018 µM | 0.0001 µM | C#Cc1ccc(NC(=O)c2ccc(CC[C@H]3COC(N)=N3)cc2)cc1 [Example 145, (S)-4-(2-(2-amino-4,5-dihydrooxazol-4-yl)ethyl)-N-(4-ethynylphenyl)benzamide]
0.008 µM | 0.0002 µM | C#Cc1ccc(NC(=O)c2ccc(CC[C@H]3COC(N)=N3)cc2)nc1 [Example 152, (S)-4-(2-(2-Amino-4,5-dihydrooxazol-4-yl)ethyl)-N-(5-ethynylpyridine-2-yl)benzamide]
0.0009 µM | 0.001 µM | CCOc1ccc(C(=O)Nc2ccc(CC[C@H]3COC(N)=N3)cc2)nc1 [Example 153, (S)-N-(4-(2-(2-Amino-4,5-dihydrooxazol-4-yl)ethyl)phenyl)-5-ethoxypicolinamide]
0.0004 µM | 0.0006 µM | Cc1cc(C(=O)Nc2ccc(CC[C@H]3COC(N)=N3)cc2)ncc1Cl [Example 155, (S)-N-(4-(2-(2-Amino-4,5-dihydrooxazol-4-yl)ethyl)phenyl)-5-chloro-4-methylpicolinamide]
0.0014 µM | 0.0009 µM | COc1ccc(C(=O)Nc2ccc(CC[C@H]3COC(N)=N3)cc2)nc1Cl [Example 168, (S)-N-(4-(2-(2-Amino-4,5-dihydrooxazol-4-yl)ethyl)phenyl)-6-chloro-5-methoxypicolinamide]
0.0005 µM | 0.0001 µM | NC1=N[C@@H](CCc2ccc(NC(=O)c3ccc(Cl)s3)cc2)CO1 [Example 169, (S)-N-(4-(2-(2-Amino-4,5-dihydrooxazol-4-yl)ethyl)phenyl)-5-chlorothiophene-2-carboxamide]
0.0008 µM | 0.0011 µM | Cc1ccc(C(=O)Nc2ccc(CC[C@H]3COC(N)=N3)cc2)nc1 [Example 171, (S)-N-(4-(2-(2-Amino-4,5-dihydrooxazol-4-yl)ethyl)phenyl)-5-methylpicolinamide]

Second part, the compound before the results:

Compound | Ki (mouse TAAR1) | Ki (rat TAAR1)
NC1=N[C@@H](CCc2ccc(NC(=O)c3cnc(N4CCCCC4)nc3)cc2)CO1 [Example 123, (S)-N-(4-(2-(2-Amino-4,5-dihydrooxazol-4-yl)ethyl)phenyl)-2-(piperidin-1-yl)pyrimidine-5-carboxamide] | 0.0007 µM | 0.0017 µM
NC1=N[C@@H](CCc2ccc(NC(=O)C(F)(F)c3ccc(Cl)c(Cl)c3)cc2)CO1 [Example 125, (S)-N-(4-(2-(2-Amino-4,5-dihydrooxazol-4-yl)ethyl)phenyl)-2-(3,4-dichlorophenyl)-2,2-difluoroacetamide] | 0.0006 µM | 0.0011 µM
COc1cnc(C(=O)Nc2ccc(CC[C@H]3COC(N)=N3)cc2)cn1 [Example 127, (S)-N-(4-(2-(2-Amino-4,5-dihydrooxazol-4-yl)ethyl)phenyl)-5-methoxypyrazine-2-carboxamide] | 0.0063 µM | 0.0022 µM
COc1cncc(C(=O)Nc2ccc(CC[C@H]3COC(N)=N3)cc2)n1 [Example 128, (S)-N-(4-(2-(2-Amino-4,5-dihydrooxazol-4-yl)ethyl)phenyl)-6-methoxypyrazine-2-carboxamide] | 0.0079 µM | 0.0054 µM
COc1cc(Cl)ccc1C(=O)Nc1ccc(CC[C@H]2COC(N)=N2)cc1 [Example 138, (S)-N-(4-(2-(2-Amino-4,5-dihydrooxazol-4-yl)ethyl)phenyl)-4-chloro-2-methoxybenzamide] | 0.0002 µM | 0.0002 µM
NC1=N[C@@H](CCc2ccc(NC(=O)OCc3ccc(Cl)cc3)cc2)CO1 [Example 146, {4-[2-((S)-2-Amino-4,5-dihydro-oxazol-4-yl)-ethyl]-phenyl}-carbamic acid 4-chloro-benzyl ester] | 0.0001 µM | 0.0003 µM
COc1ccc(OC(=O)Nc2ccc(CC[C@H]3COC(N)=N3)cc2)cc1 [Example 147, {4-[2-((S)-2-Amino-4,5-dihydro-oxazol-4-yl)-ethyl]-phenyl}-carbamic acid 4-methoxy-phenyl ester] | 0.0006 µM | 0.0003 µM
NC1=N[C@@H](CCc2ccc(NC(=O)Oc3ccc(F)cc3)cc2)CO1 [Example 148, {4-[2-((S)-2-Amino-4,5-dihydro-oxazol-4-yl)-ethyl]-phenyl}-carbamic acid 4-fluoro-phenyl ester] | 0.0005 µM | 0.0006 µM
NC1=N[C@@H](CCc2ccc(NC(=O)Oc3cccc(C(F)(F)F)c3)cc2)CO1 [Example 149, {4-[2-((S)-2-Amino-4,5-dihydro-oxazol-4-yl)-ethyl]-phenyl}-carbamic acid 3-trifluoromethyl-phenyl ester] | 0.0097 µM | 0.0092 µM
NC1=N[C@@H](C[C@@H](Oc2ccc(NC(=O)c3ccc(Cl)cc3)cc2)C(F)(F)F)CO1 [Example 150, N-{4-[(R)-1-((S)-2-Amino-4,5-dihydro-oxazol-4-ylmethyl)-2,2,2-trifluoro-ethoxy]-phenyl}-4-chloro-benzamide] | 0.0004 µM | 0.0005 µM
NC1=N[C@@H](CCc2ccc(NC(=O)Nc3ncc(Cl)cn3)cc2)CO1 [Example 151, 1-{4-[2-((S)-2-Amino-4,5-dihydro-oxazol-4-yl)-ethyl]-phenyl}-3-(5-chloro-pyrimidin-2-yl)-urea] | 0.0071 µM | 0.0028 µM
Cc1cc(Cl)cc(C(=O)Nc2ccc(CC[C@H]3COC(N)=N3)cc2)n1 [Example 156, (S)-N-(4-(2-(2-Amino-4,5-dihydrooxazol-4-yl)ethyl)phenyl)-4-chloro-6-methylpicolinamide] | 0.0006 µM | 0.0063 µM
Cc1cc(C)nc(C(=O)Nc2ccc(CC[C@H]3COC(N)=N3)cc2)c1 [Example 157, (S)-N-(4-(2-(2-Amino-4,5-dihydrooxazol-4-yl)ethyl)phenyl)-4,6-dimethylpicolinamide] | 0.0019 µM | 0.0006 µM
NC1=N[C@@H](CCc2ccc(NC(=O)c3cc(Cl)cc(Cl)n3)cc2)CO1 [Example 158, (S)-N-(4-(2-(2-Amino-4,5-dihydrooxazol-4-yl)ethyl)phenyl)-4,6-dichloropicolinamide] | 0.0006 µM | 0.0006 µM
NC1=N[C@@H](CCc2ccc(NC(=O)c3cnc(C(F)(F)F)cn3)cc2)CO1 [Example 159, (S)-N-(4-(2-(2-Amino-4,5-dihydrooxazol-4-yl)ethyl)phenyl)-5-(trifluoromethyl)pyrazine-2-carboxamide] | 0.001 µM | 0.0024 µM
NC1=N[C@@H](CCc2ccc(NC(=O)c3cncc(Cl)n3)cc2)CO1 [Example 160, (S)-N-(4-(2-(2-Amino-4,5-dihydrooxazol-4-yl)ethyl)phenyl)-6-chloropyrazine-2-carboxamide] | 0.0047 µM | 0.0018 µM
CCOc1cnc(C(=O)Nc2ccc(CC[C@H]3COC(N)=N3)cc2)cn1 [Example 161, (S)-N-(4-(2-(2-Amino-4,5-dihydrooxazol-4-yl)ethyl)phenyl)-5-ethoxypyrazine-2-carboxamide] | 0.001 µM | 0.0012 µM
NC1=N[C@@H](CCc2ccc(NC(=O)c3cnc(N4CCC(F)(F)CC4)cn3)cc2)CO1 [Example 164] | 0.0018 µM | 0.0027 µM
NC1=N[C@@H](CCc2ccc(NC(=O)CCC3CC3)cc2)CO1 [Example 170, (S)-N-(4-(2-(2-Amino-4,5-dihydrooxazol-4-yl)ethyl)phenyl)-3-cyclopropylpropanamide] | 0.0074 µM | 0.0018 µM
